Measurements as given in patent US4574126A, “Pyridine derivatives histamine H2 -antagonists” (Smith Kline & French Laboratories Limited, priority 1982, dated 1986).

What was measured:
histamine H2 -receptors [1] = target: T1, histamine H2 -receptors (Cavia porcellus, UniProt P47747); test: guinea pig atrium test: inhibition of histamine-induced tachycardia in isolated right atrium; format: biochemical; conditions: histamine-induced rate increase, 60 min contact, read-out: pA2 (converted)
T1 construct: a spontaneously beating isolated portion of the guinea pig right atrium; from tissue; host or cells: isolated guinea pig right atrium
T1 sequence (P47747 whole entry): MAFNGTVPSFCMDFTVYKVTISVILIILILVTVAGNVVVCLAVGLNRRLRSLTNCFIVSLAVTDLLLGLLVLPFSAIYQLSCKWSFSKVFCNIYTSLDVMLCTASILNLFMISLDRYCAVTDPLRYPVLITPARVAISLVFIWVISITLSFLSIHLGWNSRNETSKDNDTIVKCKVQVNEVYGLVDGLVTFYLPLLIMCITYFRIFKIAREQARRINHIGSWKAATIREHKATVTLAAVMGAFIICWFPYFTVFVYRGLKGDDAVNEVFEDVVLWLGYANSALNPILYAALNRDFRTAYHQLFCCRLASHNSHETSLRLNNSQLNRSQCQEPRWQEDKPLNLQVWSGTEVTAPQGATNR
Procedure: In the guinea pig atrium test a spontaneously beating isolated portion of the guinea pig right atrium is secured under tension (300 mg) between an anchorage and a transducer in a 15 ml tissue bath and immersed in McEwens solution with constant aeration at a temperature of 37° C. The output from the transducer is amplified. Output is in turn fed to a flat bed recorder. Measured amounts of histamine are added to the tissue bath so that the histamine concentration increases step-wise until the rate of beating reaches a maximum. The tissue bath is washed out and filled with fresh McEwens solution containing compound under test. The solution is left in contact with the tissue for 60 min. and measured amounts of histamine are added again until a maximum rate is recorded. The assay is repeated with increasing concentrations of test compound and the dose of histamine giving 50% of maximum rate is noted. A dose ratio (DR) was calculated by comparing the concentrations of histamine required to produce 50% maximum response in the absence and in the presence of the antagonist. A plot of Log DR-1 against LOG D (the concentration of compound under test) is made and the point of intersection with the Log (DR-1) ordinate is taken as the measure of the activity (pA2 value).

histamine H2 -receptors [2] = target: T2, histamine H2 -receptors (Rattus norvegicus, UniProt P25102); test: lumen-perfused rat test: inhibition of histamine-stimulated secretion of gastric acid; format: in vivo; conditions: iv, lumen-perfused stomachs of rats anaesthetised with urethane, read-out: ED50 (for inhibiting sub-maximal acid secretion by 50%)
T2 construct: histamine-stimulated secretion of gastric acid from the lumen-perfused stomachs of rats anaesthetised with urethane; from tissue; host or cells: lumen-perfused stomach of urethane-anaesthetised female Sprague-Dawley rats (in vivo)
T2 sequence (P25102 whole entry, the tested form may be a part): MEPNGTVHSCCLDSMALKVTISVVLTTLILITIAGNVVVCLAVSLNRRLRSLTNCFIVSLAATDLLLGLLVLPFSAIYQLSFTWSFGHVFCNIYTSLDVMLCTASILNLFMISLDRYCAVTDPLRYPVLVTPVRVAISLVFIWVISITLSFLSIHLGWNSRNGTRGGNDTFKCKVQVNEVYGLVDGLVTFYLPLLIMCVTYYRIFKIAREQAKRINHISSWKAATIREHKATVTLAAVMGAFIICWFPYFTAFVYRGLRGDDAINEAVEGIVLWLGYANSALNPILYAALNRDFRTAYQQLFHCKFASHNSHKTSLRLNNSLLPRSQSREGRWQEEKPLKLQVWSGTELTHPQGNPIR
Source text: These are actions of histamine which, according to Ash and Schild, Brit. J. Pharmac. Chemother. 27 247 (1966), are not mediated by histamine H1 -receptors.
Inhibition of histamine-stimulated secretion of gastric acid can be measured by using a lumen-perfused stomachs of rats anaesthetised with urethane using the following modification of the method of Ghosh and Schild, Brit. J. Pharmac. Chemother. 13 54 (1958):
Female Sprague-Dawley rats (160-200 g) are starved overnight and anaesthetised with urethane given intraperitoneally in one dose (200 mg). The trachea and jugular veins are both cannulated and a mid-line incision is made in the abdomen exposing the stomach which is cleared from connective tissue. […] The effluent is passed over a micro-flow pH electrode and recorded by a pH meter fed to an anti-log unit and flat-bed recorder. The basal output of acid secretion from the stomach is monitored by measurement of the pH of the perfusion effluent. A sub-maximal dose of histamine is continuously infused into the jugular vein and produces a stable plateau of acid secretion and the pH of the perfusion effluent is determined when this condition is obtained. […] The difference in acid secretion between basal output and the histamine stimulated plateau level and the reduction of acid secretion caused by the test compound are calculated from the difference in pH of the perfusion effluent. […]

Kb (histamine H2 -receptors [1]) | ED50 (histamine H2 -receptors [2]) | SMILES
< 100 nM | < 0.1 µmol/kg | CNC(=C[N+](=O)[O-])NCCSCc1cc(CN(C)C)ccn1 [Example 2, 1-nitro-2-methylamino-2-[2-(4-dimethylaminomethyl-2-pyridylmethylthio)ethylamino]-ethylene]
< 100 nM | < 0.1 µmol/kg | CNC(=NCCSCc1cc(CN(C)C)ccn1)NC#N [Example 1, N-cyano-N'-methyl-N"-[2-(4-dimethylaminomethyl-2-pyridylmethylthio)ethyl]-guanidine]
